{
  "source": "patent US20150258197A1",
  "about": "“EUTECTIC ISOMETHEPTENE MUCATE” (TONIX PHARMA HOLDINGS LIMITED, priority 2014, published 2015)",
  "key": {"mice [1]": {"test_system": "mice", "test": "Formalin Test, late phase (licking score)", "type": "in vivo", "conditions": "mouse, 5% formalin intraplantar, three doses p.o. 15 minutes before the test, 15-50 min after formalin", "from_the_text": "(§1) Common mouse models for pain include the Formalin Test (Wheeler-Aceto, et al., Psychopharmacology, 104, 35-44, 1991), the Hot Plate Test (Eddy and Leimbach, J. Pharmacol. Exp. Ther., 107, 385-393, 1953), and the Tail-flick Test (D'Amour and Smith, J. Pharmacol. Exp. Ther., 1, 74-79, 1941). These methods detect analgesic activity of compositions of interest. In the Formalin Test, mice are given an intraplantar injection of 5% formalin into one posterior hindpaw to induce paw licking. Test compositions are given to the mice before treatment with formalin and the mice are evaluated and compared to a control group. In the Hot Plate Test, mice are placed onto a hot metal plate maintained at 54° C. and the latency to the first foot-lick is measured. As with the Formalin test, compositions of interest are given to the mice before the test and the mice are evaluated and compared to a control group. In the Tail-flick Test, a mouse's tail is heated by means of a thermal light source, and the latency before the animal withdraws its tail is measured. […]\nMice were given an intraplantar injection of 5% formalin (25 μL) into one posterior hindpaw. […] Mice were briefly observed at one minute intervals between 15 and 50 minutes after the injection of formalin and the number of occasions that the mice were observed licking the injected paw was recorded. […]"}, "mice [2]": {"test_system": "mice", "test": "Hot Plate Test", "type": "in vivo", "conditions": "mouse, hot plate 54° C., 10, 30 and 100 mg/kg p.o. 15 minutes before the test", "from_the_text": "as §1\nMice were placed onto a hot metal plate maintained at 54° C. surrounded by a Plexiglas cylinder (height: 13 cm; diameter: 19 cm). The latency to the first foot-lick was measured (maximum: 30 seconds). […]\nData with the test substance were analyzed by comparing treated groups with vehicle control using ANOVA followed by post-hoc Dunnett's tests. […]"}, "mice [3]": {"test_system": "mice", "test": "Tail-flick Test", "type": "in vivo", "conditions": "mouse, thermal light source, three doses (10, 30, 100) p.o. 15 minutes before the test", "from_the_text": "Common mouse models for pain include the Formalin Test (Wheeler-Aceto, et al., Psychopharmacology, 104, 35-44, 1991), the Hot Plate Test (Eddy and Leimbach, J. Pharmacol. Exp. Ther., 107, 385-393, 1953), and the Tail-flick Test (D'Amour and Smith, J. Pharmacol. Exp. Ther., 1, 74-79, 1941). These methods detect analgesic activity of compositions of interest. In the Formalin Test, mice are given an intraplantar injection of 5% formalin into one posterior hindpaw to induce paw licking. Test compositions are given to the mice before treatment with formalin and the mice are evaluated and compared to a control group. In the Hot Plate Test, mice are placed onto a hot metal plate maintained at 54° C. and the latency to the first foot-lick is measured. As with the Formalin test, compositions of interest are given to the mice before the test and the mice are evaluated and compared to a control group. In the Tail-flick Test, a mouse's tail is heated by means of a thermal light source, and the latency before the animal withdraws its tail is measured. Test compositions are administered before the test, and compared with a vehicle control group. The analgesic activity of the compositions described herein can be identified using the mouse formalin, hot plate, and tail-flick tests.\nA method for detecting analgesic activity followed that described by D'Amour and Smith (J. Pharmacol. Exp. Ther., 1, 74-79, 1941). The mouse's tail was heated by means of a thermal light source (20 volts). The latency before the animal withdraws its tail was measured (maximum: 15 seconds).\nTen mice were studied per group. The test was performed partially blind.\nThe test substances selected from (R)-isometheptene mucate, and (S)-isometheptene mucate were evaluated at three doses ([…]), administered p.o. 15 minutes before the test, and compared with a vehicle control group. […]\nData with the test substance were analyzed by comparing treated groups with vehicle control using ANOVA followed by post-hoc Dunnett's tests. Data with the reference substance were analyzed using unpaired Student's t tests."}, "[4]": {"conditions": "cited from earlier work"}, "[5]": {"test_system": "imidazoline-1 (I1) receptor", "conditions": "cited from earlier work"}, "[6]": {"conditions": "compared with (S)-isometheptene"}},
  "data": [
    {"smiles": "CN[C@@H](C)CCC=C(C)C", "note": "[(S)-isometheptene mucate]", "values": [
      {"measurement": "Licking score compared to vehicle", "setting": "mice [1]", "value": "reduction in licking score"},
      {"measurement": "Foot-licking latency compared to vehicle", "setting": "mice [2]", "value": "longer foot-licking latency times"},
      {"measurement": "Tail flick latency compared to vehicle", "setting": "mice [3]", "value": "longer tail flick latency times"}
    ]},
    {"smiles": "CNC(C)CCC=C(C)C", "note": "(racemic) [Racemic isometheptene, reference compound]", "values": [
      {"measurement": "Heart rate and diastolic blood pressure", "setting": "[4]; in vivo", "value": "increase"}
    ]},
    {"smiles": "CN[C@H](C)CCC=C(C)C", "note": "[(R)-isometheptene]", "values": [
      {"measurement": "Binding affinity for the imidazoline-1 (I1) receptor", "setting": "[5]", "value": "significant binding affinity"},
      {"measurement": "I1 affinity relative to (S)-isometheptene", "setting": "[5]; [6]", "value": "higher affinity"},
      {"measurement": "Potential adverse effects to the cardiovascular system relative to (S)-isometheptene", "setting": "[4]; [6]", "value": "lower potential adverse effects"}
    ]}
  ]
}
